From patent US8877748B2, “Heterocyclic fused anthraquinone derivatives, manufacturing method and pharmaceutical composition using thereof” (National Defense Medical Center, priority 2012, dated 2014)

Legend:
[1] = tested on: NCl/ADR-RES; experiment: NCI one-dose screening, breast cancer NCl/ADR-RES; format: cell-based, human; settings: Ovarian cancer, NCI/ADR-RES
[2] = tested on: HL-60, TB; experiment: NCI one-dose screening, leukemia HL-60, TB; format: cell-based, human; settings: HL-60(TB)
[3] = tested on: K562cell line; experiment: NCI one-dose screening, leukemia K562; format: cell-based, human; settings: K562, 10 μM
[4] = tested on: NCI-H522; experiment: NCI one-dose screening, non-small cell lung cancer NCI-H522; format: cell-based, human; settings: NCI-H522, 10 μM
[5] = tested on: SR; experiment: NCI one-dose screening, leukemia SR; format: cell-based, human; settings: SR
[6] = tested on: NCI-H460; experiment: NCI one-dose screening, non-small cell lung cancer NCI-H460; format: cell-based, human; settings: NCI-H460, 10 μM
[7] = tested on: SN12C; experiment: NCI one-dose screening, renal cancer SN12C; format: cell-based, human; settings: SN12C
[8] = tested on: NCI-H226; experiment: NCI one-dose screening, non-small cell lung cancer NCI-H226; format: cell-based, human; settings: NCI-H226, 10 μM
[9] = tested on: SK-MEL-2; experiment: NCI one-dose screening, melanoma SK-MEL-2; format: cell-based, human; settings: SK-MEL-2, 10 μM
[10] = tested on: LOX IMVI; experiment: NCI one-dose screening, melanoma LOX IMVI; format: cell-based, human; settings: LOX IMVI
[11] = tested on: KM12; experiment: NCI one-dose screening, colon cancer KM12; format: cell-based, human; settings: KM12, 10 μM
[12] = tested on: HT29; experiment: NCI one-dose screening, colon cancer HT29; format: cell-based, human; settings: HT29, 10 μM
[13] = tested on: MDA-MB-468; experiment: NCI one-dose screening, breast cancer MDA-MB-468; format: cell-based, human; settings: MDA-MB-468, 10 μM
[14] = tested on: HCC-2998; experiment: NCI one-dose screening, colon cancer HCC-2998; format: cell-based, human; settings: HCC-2998, 10 μM
[15] = tested on: OVCAR-8; experiment: NCI one-dose screening, ovarian cancer OVCAR-8; format: cell-based, human; settings: OVCAR-8, 10 μM
[16] = tested on: DU145; experiment: NCI one-dose screening, prostate cancer DU145; format: cell-based, human; settings: DU145, 10 μM
[17] = tested on: 786-O; experiment: NCI one-dose screening, renal cancer 786-O; format: cell-based, human; settings: 786-0, 10 μM
[18] = tested on: EKVX; experiment: NCI one-dose screening, non-small cell lung cancer EKVX; format: cell-based, human; settings: EKVX
[19] = tested on: NCI-H322M; experiment: NCI one-dose screening, non-small cell lung cancer NCI-H322M; format: cell-based, human; settings: Non-small cell lung cancer, NCI-H322M, 10 μM
[20] = tested on: HOP-62; experiment: NCI one-dose screening, non-small cell lung cancer HOP-62; format: cell-based, human; settings: HOP-62, 10 μM
[21] = tested on: IGROV1; experiment: NCI one-dose screening, ovarian cancer IGROV1; format: cell-based, human; settings: IGROV1, 10 μM
[22] = tested on: CCRF-CEM; experiment: NCI screening platform one-dose single concentration screening, leukemia CCRF-CEM; format: cell-based, human; settings: CCRF-CEM
[23] = tested on: TK-10; experiment: NCI one-dose screening, renal cancer TK-10; format: cell-based, human; settings: TK-10, 10 μM
[24] = tested on: SF-295; experiment: NCI one-dose screening, CNS cancer SF-295; format: cell-based, human; settings: SF-295, 10 μM
[25] = tested on: HCT-15; experiment: NCI one-dose screening, colon cancer HCT-15; format: cell-based, human; settings: HCT-15, 10 μM
[26] = tested on: PRMI-8226 cell line; experiment: NCI one-dose screening, leukemia PRMI-8226; format: cell-based, human; settings: RPMI-8226, 10 μM
[27] = tested on: BT-549; experiment: NCI one-dose screening, breast cancer BT-549; format: cell-based, human; settings: BT-549, 10 μM
[28] = tested on: A549/ATCC; experiment: NCI one-dose screening, non-small cell lung cancer A549/ATCC; format: cell-based, human; settings: A549/ATCC
[29] = tested on: UO-31; experiment: NCI one-dose screening, renal cancer UO-31; format: cell-based, human; settings: UO-31, 10 μM
[30] = tested on: M14; experiment: NCI one-dose screening, melanoma M14; format: cell-based, human; settings: M14, 10 μM
[31] = tested on: OVCAR-5; experiment: NCI one-dose screening, ovarian cancer OVCAR-5; format: cell-based, human; settings: OVCAR-5, 10 μM
[32] = tested on: SK-MEL-5; experiment: NCI one-dose screening, melanoma SK-MEL-5; format: cell-based, human; settings: SK-MEL-5, 10 μM
[33] = tested on: human tumor cell lines; experiment: NCI one-dose screening, mean, delta and range of growth percent over all cell lines tested; format: cell-based
[34] = tested on: T-47D; experiment: NCI one-dose screening, breast cancer T-47D; format: cell-based, human; settings: T-47D
[35] = tested on: MDA, -MB-435; experiment: NCI one-dose screening, breast cancer MDA, -MB-435; format: cell-based, human; settings: Melanoma, MDA-MB-435, 10 μM
[36] = tested on: HS 578-T; experiment: NCI one-dose screening, breast cancer HS 578-T; format: cell-based, human; settings: Breast cancer, HS 578T, 10 μM
[37] = tested on: CAKI-1; experiment: NCI one-dose screening, renal cancer CAKI-1; format: cell-based, human; settings: CAKI-1, 10 μM
[38] = tested on: UACC-257; experiment: NCI one-dose screening, melanoma UACC-257; format: cell-based, human; settings: UACC-257, 10 μM
[39] = tested on: OVCAR-3; experiment: NCI one-dose screening, ovarian cancer OVCAR-3; format: cell-based, human; settings: OVCAR-3, 10 μM
[40] = tested on: UACC-62; experiment: NCI one-dose screening, melanoma UACC-62; format: cell-based, human; settings: UACC-62, 10 μM
[41] = tested on: MCF7; experiment: NCI one-dose screening, breast cancer MCF7; format: cell-based, human; settings: MCF7, 10 μM
[42] = tested on: SF-268; experiment: NCI one-dose screening, CNS cancer SF-268; format: cell-based, human; settings: SF-268, 10 μM
[43] = tested on: U251; experiment: NCI one-dose screening, CNS cancer U251; format: cell-based, human; settings: U251, 10 μM
[44] = tested on: MALME-3M; experiment: NCI one-dose screening, melanoma MALME-3M; format: cell-based, human; settings: MALME-3M

For `Cc1ccc(Nc2cc3c(c4nsnc24)C(=O)c2ccccc2C3=O)cc1` [C64, 4-(p-tolylamino)anthra[2,1-c][1,2,5] thiadiazol-6,11-dione], the “Growth Percent (10 μM)” value [1] was 61.34%, the “Growth Percent (10 μM)” value [2] was 46.13% and the “Growth Percent (10 μM)” value [3] was 33.45%. For the same molecule, the “Growth Percent (10 μM)” value [4] was 53.06%, the “Growth Percent (10 μM)” value [5] was 26.12% and the “Growth Percent (10 μM)” value [6] was 21.80%. The “Growth Percent (10 μM)” value [7] was 74.58%, the “Growth Percent (10 μM)” value [8] was 66.61% and the “Growth Percent (10 μM)” value [9] was 93.85%. For the same molecule, the “Growth Percent (10 μM)” value [10] was 27.05%, the “Growth Percent (10 μM)” value [11] was 64.56% and the “Growth Percent (10 μM)” value [12] was 96.29%. The “Growth Percent (10 μM)” value [13] was 58.18%, the “Growth Percent (10 μM)” value [14] was 95.82% and the “Growth Percent (10 μM)” value [15] was 53.96%. The “Growth Percent (10 μM)” value [16] was 68.26%, the “Growth Percent (10 μM)” value [17] was 74.18% and the “Growth Percent (10 μM)” value [18] was 82.17%. The “Growth Percent (10 μM)” value [19] was 94.85%, the “Growth Percent (10 μM)” value [20] was 65.10% and the “Growth Percent (10 μM)” value [21] was 49.40%. The “Growth Percent (10 μM)” value [22] was 59.59%, the “Growth Percent (10 μM)” value [23] was 95.15% and the “Growth Percent (10 μM)” value [24] was 75.76%. For the same molecule, the “Growth Percent (10 μM)” value [25] was 32.24%, the “Growth Percent (10 μM)” value [26] was 21.59% and the “Growth Percent (10 μM)” value [27] was 76.36%. The “Growth Percent (10 μM)” value [28] was 56.25%, the “Growth Percent (10 μM)” value [29] was 56.97% and the “Growth Percent (10 μM)” value [30] was 76.72%. For the same molecule, the “Growth Percent (10 μM)” value [31] was 109.85%, the “Growth Percent (10 μM)” value [32] was 24.13% and the “Growth Percent (10 μM), Delta” value ([33]; Delta over all cell lines tested) was 48.49%. For the same molecule, the “Growth Percent (10 μM), Mean” value ([33]; Mean over all cell lines tested) was 61.35%, the “Growth Percent (10 μM), Range” value ([33]; Range over all cell lines tested) was 96.99% and the “Growth Percent (10 μM)” value [34] was 64.48%. For the same molecule, the “Growth Percent (10 μM)” value [35] was 65.53%, the “Growth Percent (10 μM)” value [36] was 78.75% and the “Growth Percent (10 μM)” value [37] was 50.33%. The “Growth Percent (10 μM)” value [38] was 71.17%, the “Growth Percent (10 μM)” value [39] was 57.92% and the “Growth Percent (10 μM)” value [40] was 67.41%. The “Growth Percent (10 μM)” value [41] was 46.59%, the “Growth Percent (10 μM)” value [42] was 52.27% and the “Growth Percent (10 μM)” value [43] was 34.17%. For the same molecule, the “Growth Percent (10 μM)” value [44] was 78.41%.
